Measured values from the NIST ThermoML archive (doi:10.1021/je3011979).
± gives the expanded uncertainty stated by the source.

Tests used:
[1] = Liquid; for mass density: 101 kPa, Vibrating tube method; for vapor or sublimation pressure: Ebulliometric method (Recirculating still)
[2] = refractive index (Na D-line) (dimensionless); conditions: 101.33 kPa, Liquid, Standard Abbe refractometry
[3] = xn = mol fraction of the nth substance listed; conditions: 101 kPa, Liquid, Vibrating tube method

SMILES: CCCOC(C)=O [propyl ethanoate]
- mass density ([1]; 291.15 K): 889.6 ± 0.2 kg/m3
- mass density ([1]; 298.15 K): 882.5 ± 0.2 kg/m3
- mass density ([1]; 318.15 K): 859.8 ± 0.2 kg/m3
- vapor or sublimation pressure ([1]; 318.35 K): 12.14 ± 0.04 kPa
- vapor or sublimation pressure ([1]; 322.19 K): 14.43 ± 0.05 kPa
- vapor or sublimation pressure ([1]; 325.87 K): 17.04 ± 0.05 kPa
- mass density ([1]; 328.15 K): 848.3 ± 0.2 kg/m3
- vapor or sublimation pressure ([1]; 328.95 K): 19.43 ± 0.05 kPa
- vapor or sublimation pressure ([1]; 331.59 K): 21.77 ± 0.05 kPa
- vapor or sublimation pressure ([1]; 334.22 K): 24.29 ± 0.05 kPa
- vapor or sublimation pressure ([1]; 336.6 K): 26.79 ± 0.05 kPa
- vapor or sublimation pressure ([1]; 338.75 K): 29.12 ± 0.06 kPa
- vapor or sublimation pressure ([1]; 340.72 K): 31.53 ± 0.06 kPa
- vapor or sublimation pressure ([1]; 342.66 K): 33.96 ± 0.06 kPa
- vapor or sublimation pressure ([1]; 344.52 K): 36.46 ± 0.06 kPa
- vapor or sublimation pressure ([1]; 346.15 K): 38.78 ± 0.06 kPa
- vapor or sublimation pressure ([1]; 347.73 K): 41.14 ± 0.07 kPa
- vapor or sublimation pressure ([1]; 349.35 K): 43.69 ± 0.07 kPa
- vapor or sublimation pressure ([1]; 350.81 K): 46.08 ± 0.07 kPa
- vapor or sublimation pressure ([1]; 352.19 K): 48.41 ± 0.07 kPa
- vapor or sublimation pressure ([1]; 353.57 K): 50.84 ± 0.08 kPa
- vapor or sublimation pressure ([1]; 354.78 K): 53.11 ± 0.08 kPa
- vapor or sublimation pressure ([1]; 356.03 K): 55.48 ± 0.08 kPa
- vapor or sublimation pressure ([1]; 357.29 K): 57.96 ± 0.08 kPa
- vapor or sublimation pressure ([1]; 358.41 K): 60.24 ± 0.08 kPa
- vapor or sublimation pressure ([1]; 359.52 K): 62.59 ± 0.09 kPa
- vapor or sublimation pressure ([1]; 360.63 K): 65 ± 0.09 kPa
- vapor or sublimation pressure ([1]; 361.71 K): 67.41 ± 0.09 kPa
- vapor or sublimation pressure ([1]; 362.73 K): 69.74 ± 0.09 kPa
- vapor or sublimation pressure ([1]; 363.81 K): 72.28 ± 0.1 kPa
- vapor or sublimation pressure ([1]; 364.84 K): 74.8 ± 0.1 kPa
- vapor or sublimation pressure ([1]; 365.86 K): 77.35 ± 0.1 kPa
- vapor or sublimation pressure ([1]; 366.81 K): 79.8 ± 0.1 kPa
- vapor or sublimation pressure ([1]; 367.7 K): 82.11 ± 0.11 kPa
- vapor or sublimation pressure ([1]; 368.62 K): 84.58 ± 0.11 kPa
- vapor or sublimation pressure ([1]; 369.51 K): 87.01 ± 0.11 kPa
- vapor or sublimation pressure ([1]; 370.41 K): 89.57 ± 0.11 kPa
- vapor or sublimation pressure ([1]; 371.18 K): 91.8 ± 0.12 kPa
- vapor or sublimation pressure ([1]; 371.99 K): 94.17 ± 0.12 kPa
- vapor or sublimation pressure ([1]; 372.78 K): 96.55 ± 0.12 kPa
- vapor or sublimation pressure ([1]; 373.55 K): 98.87 ± 0.12 kPa
- vapor or sublimation pressure ([1]; 373.97 K): 100.18 ± 0.12 kPa
- vapor or sublimation pressure ([1]; 374.34 K): 101.32 ± 0.46 kPa
- vapor or sublimation pressure ([1]; 374.52 K): 101.32 ± 0.13 kPa
- vapor or sublimation pressure ([1]; 375.1 K): 103.76 ± 0.14 kPa
- vapor or sublimation pressure ([1]; 375.78 K): 106.19 ± 0.13 kPa
- vapor or sublimation pressure ([1]; 376.51 K): 108.56 ± 0.13 kPa
- vapor or sublimation pressure ([1]; 377.29 K): 111.14 ± 0.14 kPa
- vapor or sublimation pressure ([1]; 377.98 K): 113.47 ± 0.14 kPa
- vapor or sublimation pressure ([1]; 378.69 K): 115.96 ± 0.14 kPa
- vapor or sublimation pressure ([1]; 379.36 K): 118.3 ± 0.14 kPa
- vapor or sublimation pressure ([1]; 380.04 K): 120.71 ± 0.15 kPa
- vapor or sublimation pressure ([1]; 380.74 K): 123.19 ± 0.15 kPa
- vapor or sublimation pressure ([1]; 381.41 K): 125.61 ± 0.15 kPa
- vapor or sublimation pressure ([1]; 382.06 K): 128.01 ± 0.15 kPa
- vapor or sublimation pressure ([1]; 382.71 K): 130.42 ± 0.16 kPa
- vapor or sublimation pressure ([1]; 383.34 K): 132.85 ± 0.16 kPa
- vapor or sublimation pressure ([1]; 384.01 K): 135.42 ± 0.16 kPa
- vapor or sublimation pressure ([1]; 384.55 K): 137.67 ± 0.16 kPa
- vapor or sublimation pressure ([1]; 385.18 K): 140.04 ± 0.17 kPa
- vapor or sublimation pressure ([1]; 385.79 K): 142.47 ± 0.17 kPa
- vapor or sublimation pressure ([1]; 386.36 K): 144.8 ± 0.17 kPa
- vapor or sublimation pressure ([1]; 386.9 K): 147.09 ± 0.17 kPa
- vapor or sublimation pressure ([1]; 387.49 K): 149.51 ± 0.18 kPa
- vapor or sublimation pressure ([1]; 388.06 K): 151.96 ± 0.18 kPa
- vapor or sublimation pressure ([1]; 388.63 K): 154.37 ± 0.18 kPa
- vapor or sublimation pressure ([1]; 389.16 K): 156.68 ± 0.19 kPa
- vapor or sublimation pressure ([1]; 389.68 K): 158.99 ± 0.19 kPa
- vapor or sublimation pressure ([1]; 390.18 K): 161.23 ± 0.19 kPa
- vapor or sublimation pressure ([1]; 390.68 K): 163.46 ± 0.19 kPa
- vapor or sublimation pressure ([1]; 391.22 K): 165.89 ± 0.19 kPa
- vapor or sublimation pressure ([1]; 391.7 K): 168.13 ± 0.2 kPa
- vapor or sublimation pressure ([1]; 392.24 K): 170.62 ± 0.2 kPa
- vapor or sublimation pressure ([1]; 392.73 K): 172.98 ± 0.2 kPa
- vapor or sublimation pressure ([1]; 393.23 K): 175.35 ± 0.2 kPa
- vapor or sublimation pressure ([1]; 393.71 K): 177.64 ± 0.21 kPa
- vapor or sublimation pressure ([1]; 394.16 K): 180.01 ± 0.21 kPa
- vapor or sublimation pressure ([1]; 394.66 K): 182.44 ± 0.21 kPa
- vapor or sublimation pressure ([1]; 395.17 K): 185.03 ± 0.22 kPa
- vapor or sublimation pressure ([1]; 395.67 K): 187.59 ± 0.22 kPa
- vapor or sublimation pressure ([1]; 396.16 K): 190.1 ± 0.22 kPa
- vapor or sublimation pressure ([1]; 396.69 K): 192.76 ± 0.22 kPa
- refractive index ([2]; 298.15 K): 1.3818 ± 0.0005
- refractive index ([2]; 318.15 K): 1.372 ± 0.0005

SMILES: CCCCC [pentane]
- mass density ([1]; 291.15 K): 628.2 ± 0.3 kg/m3
- mass density ([1]; 298.15 K): 621.4 ± 0.3 kg/m3
- vapor or sublimation pressure ([1]; 309.24 K): 101.32 ± 0.46 kPa
- refractive index ([2]; 298.15 K): 1.3545 ± 0.0005

SMILES: CCCCCCCCC [nonane] + CCCOC(C)=O
- mass density ([3]; 291.15 K, x2 = 0): 719.2 ± 0.3 kg/m3
- mass density ([3]; 298.15 K, x2 = 0): 713.9 ± 0.3 kg/m3
- mass density ([3]; 318.15 K, x2 = 0): 698.1 ± 0.3 kg/m3
- mass density ([3]; 328.15 K, x2 = 0): 690.2 ± 0.3 kg/m3

SMILES: CCCOC(C)=O [propyl ethanoate] + CCCCC
- mass density ([3]; 291.15 K, x1 = 1): 889.6 ± 0.2 kg/m3
- mass density ([3]; 298.15 K, x1 = 1): 882.5 ± 0.2 kg/m3

SMILES: CCCCCCCC [octane] + CCCOC(C)=O
- mass density ([3]; 291.15 K, x2 = 0): 704.1 ± 0.3 kg/m3
- mass density ([3]; 298.15 K, x2 = 0): 698.6 ± 0.3 kg/m3
- mass density ([3]; 318.15 K, x2 = 0): 682.2 ± 0.3 kg/m3
- mass density ([3]; 328.15 K, x2 = 0): 674.1 ± 0.3 kg/m3

SMILES: CCCCCCC [heptane]
- mass density ([1]; 291.15 K): 685.3 ± 0.3 kg/m3
- mass density ([1]; 298.15 K): 679.5 ± 0.3 kg/m3
- mass density ([1]; 318.15 K): 662.1 ± 0.3 kg/m3
- mass density ([1]; 328.15 K): 653.7 ± 0.3 kg/m3
- vapor or sublimation pressure ([1]; 371.55 K): 101.32 ± 0.46 kPa
- refractive index ([2]; 298.15 K): 1.3852 ± 0.0005
- refractive index ([2]; 318.15 K): 1.3748 ± 0.0005
